According to patent US8716287B2, “Pharmaceutical compounds” (Sentinel Oncology Limited, priority 2010, dated 2014):
Read-outs that look alike come from different tables or passages of the source.

Legend:
Calu 6 = experiment: Potentiation assay with DNA damaging agents in Calu 6 cells; format: cell-based; details: Calu 6 human lung adenocarcinoma, Example 4 at 8 μM
Procedure: (§1) The following protocol was used:
(§2) (a) HT29 cells were seeded in 96-well plates at a concentration of 3000 cells per well and allowed to adhere overnight prior to addition of compound or vehicle control.
(§3) (b) SN38 was prepared from a 10 mM DMSO stock to give a final concentration range of 1 μM, 300 nM, 100 nM, 30 nM, 10 nM, 3 nM, 1 nM, and vehicle control.
(§4) (c) Test compounds were prepared from 10 mM DMSO stocks to typically give a final concentration range of 3 μM, 1 μM, 0.3 μM. 0.1 μM, 0.03 μM and vehicle control. The final DMSO content was 0.4%.
(§5) (d) Test compounds were incubated with the cells for 72 h at 37° C. 5% CO2 in a humidified atmosphere.
(§6) (e) Alamar blue 10% (v/v) was then added and incubated for a further 6 h, and fluorescent product detected using the BMG FLUOstar plate reader.
(§7) (f) Data were analysed using a 4-parameter logistic equation in GraphPad Prism.
(§8) Sensitisation is determined by the enhancement in IC50 of SN38 by the addition of the Chk-1 kinase inhibitor. In the protocol described above, the IC50 for SN-38 is determined the presence of varying doses of the Chk-1 inhibitor. The fold shift represents a decrease in IC50 for SN-38 at a dose of Chk-1 inhibitor that has no effect by itself.
(§9) Using the general protocol set out in Example 67, the compound of Example 4 was tested in potentiation assays against a variety of cell lines in combination with several different DNA damaging anti-cancer agents.

HT29 = experiment: Potentiation assay with DNA damaging agents in HT29 cells; format: cell-based; details: HT29 human colon cancer; gemcitabine; Example 4 at 4 μM
Procedure: as §1, §2, §3, §4, §5, §6, §7
as §8, with “itself. […]” for “itself.”

HT29 cells = experiment: Sensitisation of HT29 cells to SN38 (Alamar blue cell growth); format: cell-based, human; details: HT29 cells; test compound at 1.25 μM
SW620 = experiment: Potentiation assay with DNA damaging agents in SW620 cells; format: cell-based; details: SW620 human colon adenocarcinoma
Procedure: as §1, §2, §3, §4, §5, §6, §7, §8, §9

Chk-1 kinase = Chk-1 kinase (Homo sapiens (Human), UniProt O14757); experiment: Chk-1 kinase inhibiting activity (33P-ATP filter assay, CHKtide substrate); format: biochemical
Chk-1 kinase, sequence (O14757 whole entry): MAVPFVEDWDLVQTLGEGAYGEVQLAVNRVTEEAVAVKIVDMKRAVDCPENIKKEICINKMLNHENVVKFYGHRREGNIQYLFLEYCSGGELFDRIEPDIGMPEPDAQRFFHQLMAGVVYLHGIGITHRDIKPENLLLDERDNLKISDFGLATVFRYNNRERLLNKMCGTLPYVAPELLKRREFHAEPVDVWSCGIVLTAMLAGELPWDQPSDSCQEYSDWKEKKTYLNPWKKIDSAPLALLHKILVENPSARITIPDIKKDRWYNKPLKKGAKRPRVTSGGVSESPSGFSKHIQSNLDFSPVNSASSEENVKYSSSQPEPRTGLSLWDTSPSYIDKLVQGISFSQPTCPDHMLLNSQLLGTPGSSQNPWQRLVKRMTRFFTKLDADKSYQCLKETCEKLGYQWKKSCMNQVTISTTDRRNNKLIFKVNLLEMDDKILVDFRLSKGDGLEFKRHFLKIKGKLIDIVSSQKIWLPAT

IC50 (Chk-1 kinase; Chk-1 kinase, Table 3, read-out: IC50): 15 nM
IC50 (Chk-1 kinase; ranges given, read-out: IC50 values against Chk-1 kinase): 10 to 100 nM
Compound: N#Cc1cnc(NC(=O)Nc2ccc(CCNCc3ccc(F)cc3)c(Cl)c2)cn1 [Example 4, 1-{3-Chloro-4-[2-(4-fluoro-benzylamino)-ethyl]-phenyl}-3-(5-cyano-pyrazin-2-yl)-urea]
Potentiation factor (Calu 6; SN-38): 3.7
Potentiation factor (Calu 6; etoposide): 7.6
Potentiation factor (Calu 6; gemcitabine): 6.1
Potentiation factor (HT29): 18
fold shift in the IC50 value of SN38 (HT29 cells): three
Potentiation factor (SW620; SN-38, Example 4 at 4 μM): 16.4
Potentiation factor (SW620; etoposide, Example 4 at 1 μM): 2.6
Potentiation factor (SW620; gemcitabine, Example 4 at 2 μM): 2.5
